Test systems include A498; SF-268; HCT-116; NCI/ADR-RES; U-251; EKVX; SK-MEL-5; OVCAR-4; SK-MEL-2; KM12; MCF7; A549; Malme-3M; SK-OV-3; OVCAR-3; LOX IMVI; COLO 205; SW-620; CAKI-1; RPMI-8226.
Experiment in all cases: DTP human tumour cell line panel, 48 h

Molecules are shown by their SMILES.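 1) Cells in 96-well plates. 2) Compound, 48 h, 5 concentrations. 3) Linear interpolation between surrounding doses. 4) Unreached endpoint = highest concentration. The concentration for 50% growth inhibition is given as GI50.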 Active and inactive are the calls of the source. No stated cut-off is given here; in the data, active = GI50 up to about 1.1 µM and inactive = higher. Bounds are passed on as bounds.

For `Clc1ccc(Cc2nc3cc(Cl)c(Cl)cc3n2CC2CCCN3CCCCC23)cc1Cl` (stereo unspecified), the GI50 in the assay on A498 is 8.17 µM (inactive); in the assay with SF-268, 3.32 µM (inactive); in the assay with HCT-116, 3.04 µM (inactive); in the assay with NCI/ADR-RES it was 4.46 µM (inactive); in the assay on U-251, 3.86 µM (inactive); in the assay on EKVX, 3.28 µM (inactive). The GI50 in the assay on SK-MEL-5 was 1.85 µM (inactive); in the assay with OVCAR-4 it was 3.4 µM (inactive); with SK-MEL-2, 6.34 µM (inactive); with KM12 it was 2.19 µM (inactive); in the assay on MCF7, 2.38 µM (inactive); with A549 it was 4.93 µM (inactive). Besides, the GI50 in the assay on Malme-3M was 1.79 µM (inactive); with SK-OV-3, 1.11 µM (active); in the assay on OVCAR-3 it was 16 µM (inactive); with LOX IMVI, 2.44 µM (inactive); in the assay with COLO 205, 1.94 µM (inactive); with SW-620, 1.48 µM (inactive). The GI50 was 3.46 µM (inactive) in the assay with CAKI-1 and 4.13 µM (inactive) in the assay with RPMI-8226.
Regarding `COCOc1ccc(OC)cc1`, the GI50 in the assay on A498, in the assay with SF-268, with HCT-116, with NCI/ADR-RES, in the assay on U-251 and in the assay with EKVX was > 100 µM (inactive) each time. The GI50 with SK-MEL-5, in the assay on OVCAR-4, with SK-MEL-2, in the assay on KM12, in the assay with MCF7 and in the assay with A549 was > 100 µM (inactive) each time. Also, the GI50 in the assay on Malme-3M, with SK-OV-3, in the assay on OVCAR-3, with LOX IMVI, with COLO 205 and in the assay with SW-620 was > 100 µM (inactive) throughout. For the same compound, the GI50 with CAKI-1 and with RPMI-8226 was > 100 µM (inactive) in each case.
Regarding `O=C(COc1ccc(OCC(=O)NNC2=NC(c3cc(F)c(Cl)cc3Cl)CS2)c(Cl)c1)NNC1=NC(c2cc(F)c(Cl)cc2Cl)CS1` (stereo unspecified), the GI50 was 23.7 µM (inactive) in the assay on A498; 31.5 µM (inactive) in the assay on HCT-116; 44.8 µM (inactive) in the assay with NCI/ADR-RES; 14.4 µM (inactive) with U-251; 20.8 µM (inactive) in the assay on EKVX; 14.7 µM (inactive) with OVCAR-4. For the same compound, the GI50 in the assay with SK-MEL-2 is 36.2 µM (inactive); in the assay with KM12, 44.4 µM (inactive); in the assay with MCF7 it was 14 µM (inactive); in the assay on A549, 14.3 µM (inactive); in the assay with Malme-3M, > 100 µM (inactive); in the assay with SK-OV-3, > 100 µM (inactive). Further, the GI50 in the assay on LOX IMVI is 1.04 µM (active); in the assay with COLO 205, 34.2 µM (inactive); with SW-620, 30.6 µM (inactive); in the assay with RPMI-8226 it was 20 µM (inactive).
Turning to `NCc1ccc(-c2ccc(-c3ccc(-c4ccc(CN)s4)s3)s2)s1`, the GI50 with A498, with HCT-116, with NCI/ADR-RES, in the assay with U-251, with EKVX and in the assay with SK-MEL-5 was > 100 µM (inactive) in each case. In addition, the GI50 in the assay with OVCAR-4, in the assay on SK-MEL-2, with KM12, in the assay with MCF7, in the assay on A549 and in the assay with Malme-3M was > 100 µM (inactive) in each case. Further, the GI50 in the assay with SK-OV-3, with OVCAR-3, with LOX IMVI, in the assay with COLO 205, in the assay on SW-620 and in the assay with CAKI-1 was > 100 µM (inactive) throughout. Further, the GI50 with RPMI-8226 was > 100 µM (inactive).
As to `CCOC(=O)c1cc(-c2ccc(OC)c(OC)c2)cn1C`, the GI50 with A498, in the assay with SF-268, with HCT-116, with NCI/ADR-RES, in the assay on U-251 and with EKVX was > 10 µM (inactive) in each case. Also, the GI50 in the assay with SK-MEL-5, in the assay with OVCAR-4, in the assay with SK-MEL-2, with KM12, with MCF7 and in the assay with A549 was > 10 µM (inactive) each time. For the same compound, the GI50 with Malme-3M, with SK-OV-3, with OVCAR-3, in the assay on LOX IMVI, with COLO 205 and in the assay on CAKI-1 was > 10 µM (inactive) in each case. Moreover, the GI50 in the assay with RPMI-8226 is > 10 µM (inactive).
In the case of `O=C1OCc2c1cc1cc3c(cc1c2-c1ccc2c(c1)OCO2)OCO3.O=C1OCc2cc3cc4c(cc3c(-c3ccc5c(c3)OCO5)c21)OCO4`, the GI50 is 24.7 µM (inactive) in the assay with A498; 2.76 µM (inactive) in the assay on HCT-116; 4.68 µM (inactive) in the assay with NCI/ADR-RES; 13.2 µM (inactive) with U-251; 4.7 µM (inactive) in the assay on SK-MEL-5; 18 µM (inactive) with OVCAR-4. For the same compound, the GI50 in the assay on SK-MEL-2 is 11.4 µM (inactive); in the assay on KM12, 11.1 µM (inactive); with MCF7, 15.4 µM (inactive); with Malme-3M, 37.2 µM (inactive); in the assay with SK-OV-3 it was 17.8 µM (inactive); in the assay on OVCAR-3, 4 µM (inactive). Besides, the GI50 was 14.2 µM (inactive) in the assay with LOX IMVI; 5.79 µM (inactive) with COLO 205; 4.51 µM (inactive) in the assay with SW-620; 11.8 µM (inactive) with CAKI-1; 4.31 µM (inactive) with RPMI-8226.
As to `CC(C)(C)OC(=O)NCCC(=O)NC1(c2cc3ccccc3s2)CCCCC1`, the GI50 in the assay on A498 was 22.9 µM (inactive); in the assay on HCT-116 it was 13.9 µM (inactive); in the assay with NCI/ADR-RES, 18.1 µM (inactive); with U-251 it was 19.3 µM (inactive); in the assay with EKVX it was 20.9 µM (inactive); with SK-MEL-5 it was 13.1 µM (inactive). The GI50 was 13.4 µM (inactive) in the assay with OVCAR-4; 18 µM (inactive) with SK-MEL-2; 18.7 µM (inactive) in the assay on KM12; 17.5 µM (inactive) with MCF7; 15.9 µM (inactive) with A549; 21.5 µM (inactive) in the assay with Malme-3M. In addition, the GI50 in the assay on SK-OV-3 was 24.4 µM (inactive); with OVCAR-3, 15.6 µM (inactive); in the assay on LOX IMVI, 18.2 µM (inactive); in the assay on COLO 205 it was 17.5 µM (inactive); in the assay on SW-620, 22.6 µM (inactive); in the assay with CAKI-1, 21.2 µM (inactive). For the same compound, the GI50 in the assay on RPMI-8226 was 0.759 µM (active).
As for `CC1(C)CCSC(/C=C/c2ccccc2)=N1`, the GI50 was 20.1 µM (inactive) with A498; 30.8 µM (inactive) with SF-268; 13.6 µM (inactive) in the assay with HCT-116; 14.7 µM (inactive) with NCI/ADR-RES; 17.9 µM (inactive) with U-251; 31.6 µM (inactive) in the assay on EKVX. In addition, the GI50 with SK-MEL-5 is 15.2 µM (inactive); in the assay on OVCAR-4, 16 µM (inactive); with SK-MEL-2, 14.6 µM (inactive); in the assay with KM12, 12 µM (inactive); with MCF7, 12.3 µM (inactive); in the assay with A549, 25.2 µM (inactive). In addition, the GI50 is 11.8 µM (inactive) with Malme-3M; 43.9 µM (inactive) with SK-OV-3; 15.2 µM (inactive) with OVCAR-3; 13.7 µM (inactive) in the assay on LOX IMVI; 19.1 µM (inactive) in the assay with SW-620; 14.8 µM (inactive) with CAKI-1. Further, the GI50 in the assay with RPMI-8226 is 17.7 µM (inactive).
With `CC(C)(C)[Si](C)(C)OC1(CCc2ccccc2OS(=O)(=O)C(F)(F)F)CCCC=C1COCc1ccccc1` (stereo unspecified), the GI50 with A498 was 66.4 µM (inactive); with HCT-116, 3.33 µM (inactive); in the assay on NCI/ADR-RES it was > 100 µM (inactive); in the assay on U-251 it was 5 µM (inactive); in the assay on EKVX, > 100 µM (inactive); in the assay on OVCAR-4, 6.05 µM (inactive). The GI50 with SK-MEL-2 is 4.59 µM (inactive); in the assay with KM12, 14 µM (inactive); in the assay on MCF7, 19.1 µM (inactive); with A549, 0.325 µM (active); with Malme-3M, 0.202 µM (active); in the assay with SK-OV-3, > 100 µM (inactive). The GI50 in the assay on OVCAR-3 was > 100 µM (inactive); in the assay on LOX IMVI, 4.31 µM (inactive); in the assay with COLO 205 it was 5.85 µM (inactive); in the assay with SW-620, 58.1 µM (inactive); in the assay on CAKI-1, > 100 µM (inactive); in the assay on RPMI-8226 it was 2.95 µM (inactive).
As to `COc1ccc(NC(C)=O)cc1N1C(=O)/C(=C\c2cc(OC)c(OC)c(OC)c2)S(=O)(=O)C1c1ccccc1` (stereo unspecified), the GI50 was > 100 µM (inactive) in the assay on A498; 29.3 µM (inactive) in the assay with HCT-116; 73.6 µM (inactive) in the assay on NCI/ADR-RES; 46.8 µM (inactive) in the assay with U-251; 23.5 µM (inactive) in the assay on EKVX; 44.8 µM (inactive) in the assay on SK-MEL-5. The GI50 was 31.6 µM (inactive) in the assay on OVCAR-4; > 100 µM (inactive) with SK-MEL-2; 46.7 µM (inactive) with KM12; 33 µM (inactive) in the assay with MCF7; 61.7 µM (inactive) with A549; 78.3 µM (inactive) in the assay on Malme-3M. Further, the GI50 with SK-OV-3 was > 100 µM (inactive); in the assay on OVCAR-3, 60.3 µM (inactive); in the assay on LOX IMVI it was 68.1 µM (inactive); with COLO 205, 39 µM (inactive); in the assay with SW-620, 50.4 µM (inactive); in the assay with CAKI-1 it was > 100 µM (inactive). For the same compound, the GI50 in the assay with RPMI-8226 was 65.8 µM (inactive).

What is called GI50 is the concentration giving 50% growth inhibition.

These data come from ChEMBL document CHEMBL1201862, “PubChem BioAssay data set” (2004).
